Laboratory results taken from patent US20050147989A1 (priority 2003, published 2005).

Molecular target: association reaction between recombinantly prepared mouse PrP (amino acids 23-231) and PrP-Sc aggregates prepared from the brain tissue of CJD patients (UniProt P04156+P04925)
Type: binding, human PrP-Sc (CJD patients); mouse PrP
Conditions: for influence on association of fluorescence-labeled recombinant PrP to prion aggregates: SIFT, 20 mM potassium phosphate buffer, pH 6.0, 0.1% Nonidet-P40

CCCCCCCC/C=C\CCCCCCCC(=O)OC[C@H](COP(=O)(O)OCCN)OC(=O)CCCCCCC/C=C\CCCCCCCC [DOPE, dioleyl-L-phosphatidylethanolamine]
influence on association of fluorescence-labeled recombinant PrP to prion aggregates: no influence on aggregation was found

CCCCCCCC/C=C\CCCCCCCCOCC(C[N+](C)(C)CCNC(=O)C(CCCNCCCN)NCCCN)OCCCCCCCC/C=C\CCCCCCCC.O=C([O-])C(F)(F)F (stereo not drawn) [DOSPA, 2,3-dioleyloxy-N-[2-(sperminecarboxamido)ethyl]-N,N-dimethyl-1-propanaminium trifluoroacetate]
number of bins per sector in two-dimensional histograms of the fluorescence intensity (FIG. 4, two-dimensional SIFT evaluation by sectors): number of bins is decreased in sectors 1 to 9 | influence on association of fluorescence-labeled recombinant PrP to prion aggregates: inhibits the association of fluorescence-labeled recombinant PrP to prion aggregates at low micromolar concentrations
